Results published in patent US9512114B2, “Substituted aminopyrimidine compounds and methods of use” (Calitor Sciences, LLC, priority 2013, dated 2016).

Legend:
[1] = Compound stability in human liver microsomes; format: in vitro ADME; conditions: pH 7.4; for CLint scaled at 5 μM: liver microsomes, in vivo CLint extrapolated from human liver microsome incubation; for half-life at 5 μM: human liver microsomes 0.5 mg protein/mL, compound 5 μM, NADPH 1.0 mM, 37° C., read-out: Human T1/2
Description: (§1) The LC/MS/MS system used in the analysis consists of an Agilent 1200 Series vacuum degasser, binary pump, well-plate autosampler, thermostatted column compartment, the Agilent G6430 Triple Quadrupole Mass Spectrometer with an electrosprayionization (ESI) source. Quantitative analysis was carried out using MRM mode. The parameters for MRM transitions are in the Table A.
(§2) An Agilent XDB-C18, 2.1×30 mm, […] column was used for the analysis. 5 μL of the samples were injected. Analysis condition: The mobile phase was 0.1% formic acid in water (A) and 0.1% formic acid in methanol (B). The flow rate was 0.4 mL/min. And the gradient of Mobile phase was in the Table B.
(§3) Alternatively, an Agilent 6330 series LC/MS/MS spectrometer equipped with G1312A binary pumps, a G1367A autosampler and a G1314C UV detector were used in the analysis. An ESI source was used on the LC/MS/MS spectrometer. The analysis was done in positive ion mode as appropriate and the MRM transition for each analyte was optimized using standard solution. A Capcell MP-C18 100×4.6 mm I.D., […] column (Phenomenex, Torrance, Calif., USA) was used during the analysis. The mobile phase was 5 mM ammonia acetate, 0.1% MeOH in water (A): 5 mM ammonia acetate, 0.1% MeOH in acetonitrile (B) (70:30, v/v). The flow rate was 0.6 mL/min. Column was maintained at ambient temperature. 20 μL of the samples were injected.
(§4) Human or rat liver microsomes incubations were conducted in duplicate in polypropylene tubes. The typical incubation mixtures consisted of human or rat liver microsomes (0.5 mg protein/mL), compounds of interest (5 μM) and NADPH (1.0 mM) in a total volume of 200 μL potassium phosphate buffer (PBS, 100 mM, pH 7.4). Compounds were dissolved in DMSO and diluted with PBS such that the final concentration of DMSO was 0.05%. The enzymatic reactions were commenced with the addition of protein after a 3-min preincubation and incubated in a water bath open to the air at 37° C. Reactions were terminated at various time points (0, 5, 10, 15, 30, 60 min) by adding equal volume of ice-cold acetonitrile. The samples were stored at −80° C. until LC/MS/MS assays.
(§5) The concentrations of compounds in the incubation mixtures of human or rat liver microsomes were determined by a LC/MS/MS method. The ranges of the linearity in the concentration range were determined for each tested compounds.
(§6) A parallel incubation was performed using denatured microsomes as the negative control, and reactions were terminated at various time points (0, 15, 60 min) after incubation at 37° C.
(§7) Dextromethorphan (70 μM) was selected as the positive control, and reactions were terminated at various time points (0, 5, 10, 15, 30, 60 min) after incubation at 37° C. Both positive and negative control samples were included in each assay to ensure the integrity of the microsomal incubation system.
(§8) The concentrations of compounds in human or rat liver microsome incubations were plotted as a percentage of the relevant zero time point control for each reaction. The in vivo CLint were extrapolated (ref.: Naritomi, Y.; Terashita, S.; Kimura, S.; Suzuki, A.; Kagayama, A.; and Sugiyama, Y.; Prediction of human hepatic clearance from in vivo animal experiments and in vitro metabolic studies with liver microsomes from animals and humans. Drug Metab. Dispos., 2001, 29: 1316-1324).

[2] = Compound stability in rat liver microsomes; format: in vitro ADME; conditions: pH 7.4; for CLint scaled at 5 μM: liver microsomes, in vivo CLint extrapolated from rat liver microsome incubation; for half-life at 5 μM: rat liver microsomes 0.5 mg protein/mL, compound 5 μM, NADPH 1.0 mM, 37° C., read-out: Rat T1/2
Description: as §1, §2, §3, §4, §5, §6, §7, §8

[3] = Pharmacokinetic profiles in rats; format: in vivo, rat; conditions: for Cl/F / AUC(0-t) / half-life / Vd: iv dosing 1 mg/kg; for F: oral vs iv (iv 1 mg/kg; p.o. generally 5 or 10 mg/kg); for AUC(0-t) / half-life / Vd: rat, plasma; for Vd: read-out: Vss
Description: The compounds disclosed herein are assessed in pharmacokinetic studies in mice, rats, dogs or monkeys. The compounds are administered as a water solution, 2% HPMC+1% TWEEN®80 in water solution, 5% DMSO+5% solutol in saline, 4% MC suspension or capsule. For the intravenous administration, the animals are generally given at 1 or 2 mg/kg dose. For the oral (p.o.) dosing, mice and rats are generally given 5 or 10 mg/kg dose, and dogs and monkeys are generally given 10 mg/kg dose. The blood samples (0.3 mL) are drawn at 0.25, 0.5, 1.0, 2.0, 3.0, 4.0, 6.0, 8.0, 12 and 24 h time points or 0.083, 0.25, 0.5, 1.0, 2.0, 4.0, 6.0, 8.0 and 24 h time points and centrifuged at 3,000 or 4000 rpm for 2 to 10 min. The plasma solutions are collected, stored at −20° C. or −70° C. until analyzed by LC/MS/MS as described above.

SMILES	CLint scaled at 5 μM [1] [mL/min/kg]	half-life at 5 μM [1] [min]	CLint scaled at 5 μM [2] [mL/min/kg]	half-life at 5 μM [2] [min]	Cl/F [3] [mL/min/kg]	F [3] [%]	AUC(0-t) [3] [ng·h/mL]	half-life [3] [min]	Vd [3] [L/kg]
CC[C@H](Nc1ncnc(N)c1-c1nnc(C)o1)c1cc2cccc(Cl)c2c(=O)n1C1CC1 [Ex. 10, S)-3-(1-((6-amino-5-(5-methyl-1,3,4-oxadiazol-2-yl)pyrimidin-4-yl)aminopropyl)-8-chloro-2-cyclopropylisoquinolin-1(2H)-one]	86.9	20	169	14.7	50	81.33	333	86.4	5.35
CC[C@H](Nc1ncnc(N)c1-c1nnn(C)n1)c1cc2cccc(Cl)c2c(=O)n1C1CC1 [Ex. 13, (S)-3-(1-((6-amino-5-(2-methyl-2H-tetrazol-5-yl)pyrimidin-4-yl)amino)propyl)-8-chloro-2-cyclopropylisoquinolin-1(2H)-one]	157	11.1	137	18.2	36.2	67.9	465	99.6	4.42
C[C@H](Nc1ncnc(N)c1-c1nnn(C)n1)c1cc2cccc(Cl)c2c(=O)n1-c1ccccc1 [Ex. 15, (S)-3-(1-((6-amino-5-(2-methyl-2H-tetrazol-5-yl)pyrimidin-4-yl)amino)ethyl)-8-chloro-2-phenylisoquinolin-1(2H)-one]	287	6.06	99.9	24.9	22.7	48.92	758	51.6	0.92
CC[C@H](Nc1ncnc(N)c1-c1ncn(C)n1)c1cc2cccc(Cl)c2c(=O)n1C1CC1 [Ex. 20, (S)-3-(1-((6-amino-5-(1-methyl-1H-1,2,4-triazol-3-yl)pyrimidin-4-yl)amino)propyl)-8-chloro-2-cyclopropylisoquinolin-1(2H)-one]	251	6.93	100	24.9	48.7	64.61	341	48.6	2.65
CC[C@H](Nc1ncnc(N)c1-c1noc(C)n1)c1cc2cccc(Cl)c2c(=O)n1C1CC1 [Ex. 21, (S)-3-(1-((6-amino-5-(5-methyl-1,2,4-oxadiazol-3-yl)pyrimidin-4-yl)amino)propyl)-8-chloro-2-cyclopropylisoquinolin-1(2H)-one]	258	6.73	130	19.2	–	–	–	–	–
C[C@H](Nc1ncnc(N)c1-c1nnn(C)n1)c1cc2cccc(-c3cnn(C)c3)c2c(=O)n1-c1ccccc1 [Ex. 29, (S)-3-(1-((6-amino-5-(2-methyl-2H-tetrazol-5-yl)pyrimidin-4-yl)amino)ethyl)-8-(1-methyl-1H-pyrazol-4-yl)-2-phenylisoquinolin-1(2H)-one]	19	91.5	38.3	64.9	10	80.6	1780	78	0.88
CC[C@H](Nc1ncnc(N)c1-c1noc(C)n1)c1cc2cccc(-c3cnn(C)c3)c2c(=O)n1C1CC1 [Ex. 31, (S)-3-(1-((6-amino-5-(5-methyl-1,2,4-oxadiazol-3-yl)pyrimidin-4-yl)amino)propyl)-2-cyclopropyl-8-(1-methyl-1H-pyrazol-4-yl)isoquinolin-1(2H)-one]	18.9	92.2	26.1	95.2	17.3	139.0	934	136	2.9
CC[C@H](Nc1ncnc(N)c1-c1nc(C)no1)c1cc2cccc(-c3cnn(C)c3)c2c(=O)n1C1CC1 [Ex. 32, (S)-3-(1-((6-amino-5-(3-methyl-1,2,4-oxadiazol-5-yl)pyrimidin-4-yl)amino)propyl)-2-cyclopropyl-8-(1-methyl-1H-pyrazol-4-yl)isoquinolin-1(2H)-one]	23.4	74.3	21.2	117	24.3	74.2	688	89.4	2.42

Next, values leading:

CLint scaled at 5 μM [1] [mL/min/kg]	half-life at 5 μM [1] [min]	CLint scaled at 5 μM [2] [mL/min/kg]	half-life at 5 μM [2] [min]	Cl/F [3] [mL/min/kg]	F [3] [%]	AUC(0-t) [3] [ng·h/mL]	half-life [3] [min]	Vd [3] [L/kg]	SMILES
134	12.9	148	16.7	128	12.71	131	44.4	4.96	CC[C@H](Nc1ncnc(N)c1-c1nc(C)no1)c1cc2cccc(Cl)c2c(=O)n1-c1ccccc1 [Ex. 3, (S)-3-(1-((6-amino-5-(3-methyl-1,2,4-oxadiazol-5-yl)pyrimidin-4-yl)amino)propyl)-8-chloro-2-phenylisoquinolin-1(2H)-one]
93.1	18.7	324	7.66	62.3	48.66	266	51.6	4.08	CC[C@H](Nc1ncnc(N)c1-c1nnc(C)o1)c1cc2cccc(C)c2c(=O)n1C1CC1 [Ex. 6, (S)-3-(1-((6-amino-5-(5-methyl-1,3,4-oxadiazol-2-yl)pyrimidin-4-yl)amino)propyl)-2-cyclopropyl-8-methylisoquinolin-1(2H)-one]
225	7.73	125	19.9	–	–	–	–	–	CCCCOC(=O)c1nc(-c2c(N)ncnc2N[C@@H](CC)c2cc3cccc(Cl)c3c(=O)n2C2CC2)nn1C [Ex. 14, (S)-butyl 3-(4-amino-6-((1-(8-chloro-2-cyclopropyl-1-oxo-1,2-dihydro-isoquinolin-3-yl)propyl)amino)pyrimidin-5-yl)-1-methyl-1H-1,2,4-triazole-5-carboxylate]
479	3.63	456	5.45	–	–	–	–	–	Cc1noc(-c2c(N)ncnc2N[C@@H](C)c2cc3cccc(Cl)c3c(=O)n2-c2cccc(F)c2)n1 [Ex. 23, (S)-3-(1-((6-amino-5-(3-methyl-1,2,4-oxadiazol-5-yl)pyrimidin-4-yl)amino)ethyl)-8-chloro-2-(3-fluorophenyl)isoquinolin-1(2H)-one]
